Values after ≈ are worked out from the molar mass of the structure shown.
What was measured:
[1] = system: E. coli NCTC 13441 (UPEC); assay: MIC broth microdilution; type: cell-based, Escherichia coli; settings: Escherichia coli, NCTC13441
Experimental: (§1) Minimum Inhibitory Concentrations (MICs) versus planktonic bacteria are determined by the broth microdilution procedure according to the guidelines of the Clinical and Laboratory Standards Institute (Clinical and Laboratory Standards Institute. Methods for Dilution Antimicrobial Susceptibility Tests for Bacteria That Grow Aerobically; Approved Standard-tenth Edition. CLSI document M07-A10, 2015). The broth dilution method involves a two-fold serial dilution of compounds in 96-well microtitre plates, giving a final concentration range of 0.39-200 μM and a maximum final concentration of 2% DMSO. The bacterial strains tested include Escherichia coli K12 (EC), E. coli NCTC 13441 (UPEC), Staphylococcus aureus ATCC 35556 (SA), Acinetobacter baumannii ATCC 17978 (AB), Pseudomonas aeruginosa ATCC 33359 (PA), Enterobacter cloacae DSM 30054 (Ed), Serratia marcescens SL1344 (Sm), Salmonella typhimurium XNAA5 (St), Klebsiella pneumoniae ATCC 10031 (KP2), K. pneumoniae NCTC 13438 (KP1), K. pneumoniae ATCC 700603 (KP3), Klebsiella pneumoniae ATCC 51504 (KP4), K. pneumoniae H154680676 (KP5), K. pneumoniae H154020667 (KP6), K. pneumoniae H154640784 (KP7), K. pneumoniae H154600588 (KP8), K. pneumoniae H154300688 (KP9), K. pneumoniae H151440671 (KP10). Strains are grown in cation-adjusted Müller-Hinton broth or on Luria Bertoni agar at 37° C. in an ambient atmosphere. The MIC is determined as the lowest concentration of compound that inhibits growth following a 20-24 hour incubation period.

[2] = system: Acinetobacter baumannii ATCC 17978 (AB); assay: MIC broth microdilution; type: cell-based; settings: ATCC17978
Experimental: as §1

[3] = system: Escherichia coli K12 (EC); assay: MIC broth microdilution; type: cell-based
Experimental: as §1

[4] = system: Klebsiella pneumoniae ATCC 10031 (KP2); assay: MIC broth microdilution; type: cell-based; settings: ATCC10031
Experimental: as §1

[5] = system: Pseudomonas aeruginosa ATCC 33359 (PA); assay: MIC broth microdilution; type: cell-based; settings: ATCC33359
Experimental: as §1

[6] = system: Staphylococcus aureus ATCC 35556 (SA); assay: MIC broth microdilution; type: cell-based; settings: ATCC35556
Experimental: as §1

[7] = system: K. pneumoniae NCTC 13438 (KP1); assay: MIC broth microdilution; type: cell-based, Klebsiella pneumoniae; settings: Klebsiella pneumoniae, NCTC13438
Experimental: as §1

[8] = system: human hepatocarcinoma cell line ATCC HB-8065 (HepG2); assay: Human cell viability (CellTiter-Glo); type: cell-based; settings: Homo sapiens; HepG2 cells, 24 h incubation, CellTiter-Glo luminescence, 0.2-100 μM; read-out: IC50 values against the HepG2 cell line
Experimental: Compounds are assessed for potential non-specific cytotoxic effects against the human hepatocarcinoma cell line ATCC HB-8065 (HepG2). HepG2 cells are seeded at 20,000 cells/well in 96-well microtitre plates in minimal essential medium (MEM) supplemented with a final concentration of 10% FBS. After 24 h, compound dilutions are prepared in MEM supplemented with a final concentration of 1% FBS, and added to the cells. Compounds are tested in two-fold serial dilutions over a final concentration range of 0.2-100 μM in a final DMSO concentration of 1% vol/vol. Thioridazine is used as a positive control. Cells are incubated with compound at 37° C. and 5% CO2 for a further 24 h, after which time the CellTiter-Glo reagent (Promega) is added. Luminescence is measured on a Perkin Elmer Envision plate reader. Data are analysed using a 4 parameter logistic regression to determine the concentration of compound that inhibits cell viability by fifty percent (IC50).

Row | Structure (SMILES) | MIC [1] [µM] | MIC [2] [µM] | MIC [3] [µM] | MIC [4] [µM] | MIC [5] [µM] | MIC [6] [µM] | MIC [7] [µM] | IC50 [8] [µM]
1 | Cc1cc(-c2[nH]c(CN)nc2-c2ccc3c(c2)OCCO3)ccn1 [Example 87, (4-(2,3-Dihydrobenzo[b][1,4]dioxin-6-yl)-5-(2-methylpyridin-4-yl)-1H-imidazol-2-yl)methanamine] | 1 to 10 (≈ 0.322 to 3.22 µg/mL) | > 100 | 1 to 10 (≈ 0.322 to 3.22 µg/mL) | ≤ 1 | > 100 | > 100 | 10 to 100 (≈ 3.22 to 32.2 µg/mL) | > 100
2 | Cc1cc(-c2[nH]c(N)nc2-c2ccc(OCC#N)cc2)ccn1 [Example 35, 2-(4-(2-Amino-5-(2-methylpyridin-4-yl)-1H-imidazol-4-yl)phenoxy)acetonitrile] | 1 to 10 (≈ 0.305 to 3.05 µg/mL) | > 100 | 1 to 10 (≈ 0.305 to 3.05 µg/mL) | ≤ 1 | > 100 | > 100 | 10 to 100 (≈ 3.05 to 30.5 µg/mL) | > 100
3 | Cc1cc(-c2[nH]c(N)nc2-c2cc3c(cc2F)OCCO3)ccn1 [Example 59, 4-(7-Fluoro-2,3-dihydrobenzo[b][1,4]dioxin-6-yl)-5-(2-methylpyridin-4-yl)-1H-imidazol-2-amine] | ≤ 1 | > 100 | ≤ 1 | ≤ 1 | > 100 | > 100 | 10 to 100 (≈ 3.26 to 32.6 µg/mL) | > 100
4 | Cc1cc(-c2[nH]c(N)nc2-c2ccc3c(c2)N(C)CCO3)ccn1 [Example 44, 4-(4-Methyl-3,4-dihydro-2H-benzo[b][1,4]oxazin-6-yl)-5-(2-methylpyridin-4-yl)-1H-imidazol-2-amine] | 1 to 10 (≈ 0.321 to 3.21 µg/mL) | > 100 | 1 to 10 (≈ 0.321 to 3.21 µg/mL) | ≤ 1 | > 100 | > 100 | 1 to 10 (≈ 0.321 to 3.21 µg/mL) | > 100
5 | Cc1cc(-c2[nH]c(N)nc2-c2ccc(O)c(O)c2)ccn1 [Example 71, 4-(2-Amino-5-(2-methylpyridin-4-yl)-1H-imidazol-4-yl)benzene-1,2-diol] | 10 to 100 (≈ 2.82 to 28.2 µg/mL) | > 100 | 10 to 100 (≈ 2.82 to 28.2 µg/mL) | 1 to 10 (≈ 0.282 to 2.82 µg/mL) | > 100 | > 100 | > 100 | > 100
6 | Nc1cc(-c2[nH]c(N)nc2-c2ccc3c(c2)CCO3)ccn1 [Example 8, 4-(2-Amino-4-(2,3-dihydrobenzofuran-5-yl)-1H-imidazol-5-yl)pyridin-2-amine] | ≤ 1 | > 100 | ≤ 1 | ≤ 1 | > 100 | > 100 | 10 to 100 (≈ 2.93 to 29.3 µg/mL) | > 100
7 | Nc1nc(-c2ccc3c(c2)NCCO3)c(-c2ccnc(C(F)(F)F)c2)[nH]1 [Example 46, 4-(3,4-Dihydro-2H-benzo[b][1,4]oxazin-6-yl)-5-(2-(trifluoromethyl)pyridin-4-yl)-1H-imidazol-2-amine] | 1 to 10 (≈ 0.361 to 3.61 µg/mL) | > 100 | 1 to 10 (≈ 0.361 to 3.61 µg/mL) | ≤ 1 | > 100 | > 100 | 10 to 100 (≈ 3.61 to 36.1 µg/mL) | > 100
8 | Cc1cc(-c2[nH]c(N(C)C)nc2-c2ccc3c(c2)OCCO3)ccn1 [Example 75, 4-(2,3-Dihydrobenzo[b][1,4]dioxin-6-yl)-N,N-dimethyl-5-(2-methylpyridin-4-yl)-1H-imidazol-2-amine] | 10 to 100 (≈ 3.36 to 33.6 µg/mL) | > 100 | 10 to 100 (≈ 3.36 to 33.6 µg/mL) | 1 to 10 (≈ 0.336 to 3.36 µg/mL) | > 100 | > 100 | > 100 | > 100
9 | Cc1cc(-c2[nH]c(N)nc2-c2ccc3c(c2)NCCCO3)ccn1 [Example 48, 5-(2-Methylpyridin-4-yl)-4-(2,3,4,5-tetrahydrobenzo[b][1,4]oxazepin-7-yl)-1H-imidazol-2-amine] | 1 to 10 (≈ 0.321 to 3.21 µg/mL) | > 100 | 1 to 10 (≈ 0.321 to 3.21 µg/mL) | ≤ 1 | > 100 | > 100 | 10 to 100 (≈ 3.21 to 32.1 µg/mL) | > 100

Reference: patent US11345694B2, “Antibacterial compounds” (DISCUVA LTD., priority 2017, dated 2022)
